Measurements: US9670142B2, “1,3-diaminocyclopentane carboxamide derivatives” (Merck Patent GmbH, priority 2013, dated 2017)

target: human fatty acid synthase FASN (Homo sapiens (Human), UniProt P49327); experiment: Biochemical activity testing of human fatty acid synthase FASN (NADPH fluorescence intensity enzyme assay); settings: human recombinant full-length fatty acid synthase
Source text: Biochemical activity testing of human fatty acid synthase FASN
Fatty acid synthase FASN is a multifunctional enzyme with seven catalytic activities thereby synthesising long chain fatty acids especially palmitoyl-CoA in the presence of co-factor NADPH starting from the substrates acetyl-CoA and malonyl-CoA. The reductive synthesis is realized by the oxidation of NADPH to NADP. Since NADPH has a high fluorescence intensity quantum yield compared to NADP with excitation at 340 nm and emission at 460 nm, the reaction can be monitored via the decrease in fluorescence intensity. The biochemical FASN activity testing was performed as 384 well two-time-point kinetic fluorescence intensity assay format in Greiner low volume medium binding 384-well black microtiter plates in a total assay volume of 8 μl and was used for high throughput screen. In each well 3 μl 40 nM human recombinant full-length fatty acid synthase (produced in-house in SF9 cells) were dispensed in the following assay buffer: 50 mM potassium phosphate buffer pH 7.0, 0.005% (w/v) BSA, 2 mM Glutathione, 0.02% Tween-20. Then 2 μl of 200 μM NADPH in assay buffer were added, followed by the addition of the test compounds in 10 dilution concentrations starting with 30 μM (final concentration) to get a final DMSO content of 1% (v/v). The mixture was incubated for at least 15 min at room temperature. After the pre-incubation the enzymatic reaction was started by the addition of 2 μl substrate solution (80 μM acetyl-CoA, 240 μM malonyl-CoA). A first fluorescence intensity measurement (time point one) was performed with an Envision multimode reader (Perkin Elmer LAS Germany GmbH) at excitation wavelength 340 nm (lamp mode) and emission wavelength 460 nm. The reaction was incubated for 30 minutes at room temperature. After this the fluorescence intensity was measured again in the Envision using the same parameters as described above (second time point measurement). The data were analysed by subtracting the first time point measurement value from the second time point measurement value (after the enzymatic reaction). The differences of the emission signals were determined. These reflect directly the conversion rate of NADPH. The full value used was the inhibitor-free reaction. A pharmacological zero value was used like GSK837149A (Sigma-Aldrich) in a final concentration of 5-10 μM. The inhibitory values (IC50) were determined using either the program Symyx Assay Explorer® or Condosseo® from GeneData.

Sequence of human fatty acid synthase FASN (P49327 whole entry): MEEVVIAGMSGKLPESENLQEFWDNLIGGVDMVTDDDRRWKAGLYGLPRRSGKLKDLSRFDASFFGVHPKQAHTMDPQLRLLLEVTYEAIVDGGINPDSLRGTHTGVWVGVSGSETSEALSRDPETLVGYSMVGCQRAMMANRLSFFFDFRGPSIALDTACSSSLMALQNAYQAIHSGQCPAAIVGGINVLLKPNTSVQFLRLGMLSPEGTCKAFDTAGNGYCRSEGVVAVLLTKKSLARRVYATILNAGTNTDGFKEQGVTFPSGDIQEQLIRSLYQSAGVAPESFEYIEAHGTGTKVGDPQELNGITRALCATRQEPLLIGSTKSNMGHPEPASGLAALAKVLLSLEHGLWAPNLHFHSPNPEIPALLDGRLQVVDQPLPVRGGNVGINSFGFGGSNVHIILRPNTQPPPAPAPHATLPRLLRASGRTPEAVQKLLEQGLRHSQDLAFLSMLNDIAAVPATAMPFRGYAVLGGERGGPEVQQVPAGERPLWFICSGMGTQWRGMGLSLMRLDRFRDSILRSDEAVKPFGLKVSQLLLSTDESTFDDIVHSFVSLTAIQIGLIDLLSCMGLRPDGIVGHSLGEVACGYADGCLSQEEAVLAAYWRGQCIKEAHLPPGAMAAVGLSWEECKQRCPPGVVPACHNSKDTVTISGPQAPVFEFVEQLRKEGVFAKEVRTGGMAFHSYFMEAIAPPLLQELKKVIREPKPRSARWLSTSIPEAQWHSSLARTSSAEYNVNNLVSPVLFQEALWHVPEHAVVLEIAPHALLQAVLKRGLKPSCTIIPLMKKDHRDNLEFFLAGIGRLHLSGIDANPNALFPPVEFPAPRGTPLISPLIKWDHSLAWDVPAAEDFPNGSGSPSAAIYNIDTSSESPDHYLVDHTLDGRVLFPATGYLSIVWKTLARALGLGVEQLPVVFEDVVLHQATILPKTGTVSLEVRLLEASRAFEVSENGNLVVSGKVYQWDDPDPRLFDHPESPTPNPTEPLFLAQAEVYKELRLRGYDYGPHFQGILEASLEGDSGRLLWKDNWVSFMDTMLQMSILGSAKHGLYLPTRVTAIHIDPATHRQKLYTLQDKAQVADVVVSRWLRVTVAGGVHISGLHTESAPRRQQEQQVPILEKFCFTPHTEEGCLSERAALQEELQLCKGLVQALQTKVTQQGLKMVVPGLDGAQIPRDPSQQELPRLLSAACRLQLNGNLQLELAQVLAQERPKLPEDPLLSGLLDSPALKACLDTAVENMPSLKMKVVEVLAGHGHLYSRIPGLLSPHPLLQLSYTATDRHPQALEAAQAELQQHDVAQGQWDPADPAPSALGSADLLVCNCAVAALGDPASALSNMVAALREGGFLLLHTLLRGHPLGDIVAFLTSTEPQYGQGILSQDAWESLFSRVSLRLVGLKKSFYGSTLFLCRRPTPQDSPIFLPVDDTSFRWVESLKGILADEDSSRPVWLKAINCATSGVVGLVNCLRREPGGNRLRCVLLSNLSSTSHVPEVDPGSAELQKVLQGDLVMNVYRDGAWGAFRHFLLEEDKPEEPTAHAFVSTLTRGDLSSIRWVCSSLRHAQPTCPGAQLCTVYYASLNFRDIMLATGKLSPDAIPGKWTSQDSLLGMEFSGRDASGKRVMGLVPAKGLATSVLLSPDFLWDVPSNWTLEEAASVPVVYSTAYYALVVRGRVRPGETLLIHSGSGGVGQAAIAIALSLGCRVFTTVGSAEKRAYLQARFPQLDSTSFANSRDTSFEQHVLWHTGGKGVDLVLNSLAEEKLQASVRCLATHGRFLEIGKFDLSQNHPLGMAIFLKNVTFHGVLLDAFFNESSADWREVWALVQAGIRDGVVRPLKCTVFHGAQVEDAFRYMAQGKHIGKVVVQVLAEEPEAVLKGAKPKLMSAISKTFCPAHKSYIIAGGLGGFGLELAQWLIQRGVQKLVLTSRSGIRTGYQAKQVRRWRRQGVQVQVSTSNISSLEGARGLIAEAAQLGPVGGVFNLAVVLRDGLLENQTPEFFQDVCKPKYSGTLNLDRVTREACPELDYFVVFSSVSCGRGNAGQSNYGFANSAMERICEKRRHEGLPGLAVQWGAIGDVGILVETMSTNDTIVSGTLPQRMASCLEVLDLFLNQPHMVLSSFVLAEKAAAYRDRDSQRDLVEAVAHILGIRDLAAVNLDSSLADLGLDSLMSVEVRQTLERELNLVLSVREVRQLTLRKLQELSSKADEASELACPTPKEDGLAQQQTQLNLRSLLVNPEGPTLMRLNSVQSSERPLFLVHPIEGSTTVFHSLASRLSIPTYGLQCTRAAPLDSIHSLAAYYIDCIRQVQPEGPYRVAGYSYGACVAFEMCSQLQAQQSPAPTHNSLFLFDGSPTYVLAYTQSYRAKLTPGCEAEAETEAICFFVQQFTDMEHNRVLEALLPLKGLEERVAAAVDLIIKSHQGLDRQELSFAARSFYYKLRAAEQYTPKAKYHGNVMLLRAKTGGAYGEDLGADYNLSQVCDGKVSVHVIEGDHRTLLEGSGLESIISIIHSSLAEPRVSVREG

Row | IC50 [nM] | SMILES
1 | < 300 | CCC(=O)N[C@H]1CC[C@@H](N(C)C(=O)c2ccc(-c3ccc(C)c(F)c3)cc2)C1 [Compound A66, 3′-fluoro-4′-methyl-biphenyl-4-carboxylic acid methyl-((1R,3S)-3-propionylamino-cyclopentyl)-amide]
2 | < 300 | CCC(=O)N[C@H]1CC[C@@H](N(C)C(=O)c2ccc(-c3ccc4cc[nH]c4c3)cc2)C1 [Compound A67, 4-(1H-indol-6-yl)-N-methyl-N-((1R,3S)-3-propionylamino-cyclopentyl)-benzamide]
3 | < 300 | CCC(=O)N[C@H]1CC[C@@H](N(C)C(=O)c2ccc(-c3ccc(OCC4CC4)cc3)cc2)C1 [Compound A70, 4′-cyclopropylmethoxy-biphenyl-4-carboxylic acid methyl-((1R,3S)-3-propionylamino-cyclopentyl)-amide]
4 | < 300 | CCC(=O)N[C@H]1CC[C@@H](N(C)C(=O)c2ccc(-c3ccc(C)cc3)cc2)C1 [Compound A73, 4′-methyl-biphenyl-4-carboxylic acid methyl-((1R,3S)-3-propionylamino-cyclopentyl)-amide]
5 | < 300 | CCC(=O)N[C@H]1CC[C@@H](N(C)C(=O)c2ccc(-c3ccc4cnn(C)c4c3)cc2)C1 [Compound A74, N-methyl-4-(1-methyl-1H-indazol-6-yl)-N-((1R,3S)-3-propionylamino-cyclopentyl)-benzamide]
6 | < 300 | CCC(=O)N[C@H]1CC[C@@H](N(C)C(=O)c2ccc(-c3ccc4c(cnn4C)c3)cc2)C1 [Compound A75, N-methyl-4-(1-methyl-1H-indazol-5-yl)-N-((1R,3S)-3-propionylamino-cyclopentyl)-benzamide]
7 | < 300 | CCC(=O)N[C@H]1CC[C@@H](N(C)C(=O)c2ccc(-c3ccc(C(=O)NC)cc3)cc2)C1 [Compound A78, biphenyl-4,4′-dicarboxylic acid 4′-methylamide 4-[methyl-((1R,3S)-3-propionylamino-cyclopentyl)-amide]]
8 | < 300 | CCC(=O)N[C@H]1CC[C@@H](N(C)C(=O)c2ccc(-c3ccc4c(ccn4C)c3)cc2)C1 [Compound A80, N-methyl-4-(1-methyl-1H-indol-5-yl)-N-((1R,3S)-3-propionylamino-cyclopentyl)-benzamide]
9 | < 300 | CCC(=O)N[C@H]1CC[C@@H](N(C)C(=O)c2ccc(-c3ccc(-c4ccn[nH]4)cc3)cc2)C1 [Compound A81, 4′-(2H-pyrazol-3-yl)-biphenyl-4-carboxylic acid methyl-((1R,3S)-3-propionylamino-cyclopentyl)-amide]
10 | < 300 | CCC(=O)N[C@H]1CC[C@@H](N(C)C(=O)c2ccc(-c3ccc(OC)cc3)cc2)C1 [Compound A82, 4′-methoxy-biphenyl-4-carboxylic acid methyl-((1R,3S)-3-propionylamino-cyclopentyl)-amide]
11 | < 300 | CCC(=O)N[C@H]1CC[C@@H](N(C)C(=O)c2ccc(-c3ccc(OC(F)F)cc3)cc2)C1 [Compound A85, 4′-difluoromethoxy-biphenyl-4-carboxylic acid methyl-((1R,3S)-3-propionylamino-cyclopentyl)-amide]
12 | < 300 | CCC(=O)N[C@H]1CC[C@@H](N(C)C(=O)c2ccc(-c3ccc4c(c3)OCCO4)cc2)C1 [Compound A87, 4-(2,3-dihydro-benzo[1,4]dioxin-6-yl)-N-methyl-N-((1R,3S)-3-propionylamino-cyclopentyl)-benzamide]
13 | 300 to 3000 | CCCC1CCC(c2ccc(-c3ccc(C(=O)N(C)[C@@H]4CC[C@H](NC(=O)CC)C4)cc3)cc2)OC1 (stereo partly drawn) [Compound A89, 4′-(5-propyl-tetrahydro-pyran-2-yl)-biphenyl-4-carboxylic acid methyl-((1R,3S)-3-propionylamino-cyclopentyl)-amide]

The remaining lines, values behind:

Row | SMILES | IC50 [nM]
14 | CCC(=O)N[C@H]1CC[C@@H](N(C)C(=O)c2ccc(-c3ccc(-n4cccn4)cc3)cc2)C1 [Compound A68, 4′-pyrazol-1-yl-biphenyl-4-carboxylic acid methyl-((1R,3S)-3-propionylamino-cyclopentyl)-amide] | < 300
15 | CCC(=O)N[C@H]1CC[C@@H](N(C)C(=O)c2ccc(-c3ccc(C(=O)OC)c(F)c3)cc2)C1 [Compound A69, 3-fluoro-4′-[methyl-((1R,3S)-3-propionylamino-cyclopentyl)-carbamoyl]-biphenyl-4-carboxylic acid methyl ester] | < 300
16 | CCC(=O)N[C@H]1CC[C@@H](N(C)C(=O)c2ccc(-c3ccc(C#N)c(F)c3)cc2)C1 [Compound A71, 4′-cyano-3′-fluoro-biphenyl-4-carboxylic acid methyl-((1R,3S)-3-propionylamino-cyclopentyl)-amide] | < 300
17 | CCC(=O)N[C@H]1CC[C@@H](N(C)C(=O)c2ccc(-c3cnc4ccccc4c3)cc2)C1 [Compound A72, N-methyl-N-((1R,3S)-3-propionylamino-cyclopentyl)-4-quinolin-3-yl-benzamide] | < 300
18 | CCC(=O)N[C@H]1CC[C@@H](N(C)C(=O)c2ccc(-c3ccc4[nH]cnc4c3)cc2)C1 [Compound A76, 4-(1H-benzimidazol-5-yl)-N-methyl-N-((1R,3S)-3-propionylamino-cyclopentyl)-benzamide] | < 300
19 | CCC(=O)N[C@H]1CC[C@@H](N(C)C(=O)c2ccc(-c3ccc(F)cc3F)cc2)C1 [Compound A83, 2′,4′-difluoro-biphenyl-4-carboxylic acid methyl-((1R,3S)-3-propionylamino-cyclopentyl)-amide] | < 300
20 | CCC(=O)N[C@H]1CC[C@@H](N(C)C(=O)c2ccc(-c3ccc4[nH]ncc4c3)cc2)C1 [Compound A84, 4-(1H-indazol-5-yl)-N-methyl-N-((1R,3S)-3-propionylamino-cyclopentyl)-benzamide] | < 300
21 | CCC(=O)N[C@H]1CC[C@@H](N(C)C(=O)c2ccc(-c3ccc(Cl)c(F)c3)cc2)C1 [Compound A86, 4′-chloro-3′-fluoro-biphenyl-4-carboxylic acid methyl-((1R,3S)-3-propionylamino-cyclopentyl)-amide] | < 300
22 | CCC(=O)N[C@H]1CC[C@@H](N(C)C(=O)c2ccc(-c3ccc(OC)cc3OC)cc2)C1 [Compound A88, 2′,4′-dimethoxy-biphenyl-4-carboxylic acid methyl-((1R,3S)-3-propionylamino-cyclopentyl)-amide] | < 300
23 | CCC(=O)N[C@H]1CC[C@@H](N(C)C(=O)c2ccc(-c3ccc(C)cc3C)cc2)C1 [Compound A90, 2′,4′-dimethyl-biphenyl-4-carboxylic acid methyl-((1R,3S)-3-propionylamino-cyclopentyl)-amide] | < 300
24 | CCC(=O)N[C@H]1CC[C@@H](N(C)C(=O)c2ccc(-c3ccc4[nH]nnc4c3)cc2)C1 [Compound A91, 4-(1H-benzotriazol-5-yl)-N-methyl-N-((1R,3S)-3-propionylamino-cyclopentyl)-benzamide] | < 300
25 | CCC(=O)N[C@H]1CC[C@@H](N(C)C(=O)c2ccc(-c3ccc(Cl)cc3F)cc2)C1 [Compound A92, 4′-chloro-2′-fluoro-biphenyl-4-carboxylic acid methyl-((1R,3S)-3-propionylamino-cyclopentyl)-amide] | < 300
26 | CCC(=O)N[C@H]1CC[C@@H](N(C)C(=O)c2ccc(-c3ccc4[nH]c(=O)[nH]c4c3)cc2)C1 [Compound A93, N-methyl-4-(2-oxo-2,3-dihydro-1H-benzimidazol-5-yl)-N-((1R,3S)-3-propionylamino-cyclopentyl)-benzamide] | < 300
